Source: ChEMBL document CHEMBL1125661, “2-Alkoxyadenosines: potent and selective agonists at the coronary artery A2 adenosine receptor” (J Med Chem, 1991)

Key:
Adenosine receptor A1 [1] = target: T1, Adenosine receptor A1 (Cavia porcellus, UniProt P47745)
T1 sequence (P47745 whole entry): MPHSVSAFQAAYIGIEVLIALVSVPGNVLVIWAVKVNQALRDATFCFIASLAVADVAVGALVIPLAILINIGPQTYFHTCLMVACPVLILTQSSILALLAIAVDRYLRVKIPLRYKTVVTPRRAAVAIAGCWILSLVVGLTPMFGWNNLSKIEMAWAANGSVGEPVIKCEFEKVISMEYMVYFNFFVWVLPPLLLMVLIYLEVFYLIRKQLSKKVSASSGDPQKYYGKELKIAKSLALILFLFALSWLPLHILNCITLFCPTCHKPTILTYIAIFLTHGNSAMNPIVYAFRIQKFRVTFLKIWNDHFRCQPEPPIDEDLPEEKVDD
Description: Prolongation of the stimulus-QRS interval by 50% of the maximum response at the adenosine A1 receptor in langendorff guinea pig heart preparation

Adenosine A2 receptor [2] = target: T2, Adenosine A2 receptor (Homo sapiens, UniProt P29275+P29274)
Description: Coronary arteries vasodilation at the adenosine A2 receptor in langendorff guinea pig heart preparation

Adenosine A2 receptor [3] = target: T2, Adenosine A2 receptor; remark: listed apart in the source
Description: Coronary arteries vasodilation at the Adenosine A2 receptor in langendorff guinea pig heart preparation

Adenosine receptor A1 [4] = target: T1, Adenosine receptor A1; experiment: Prolongation of the stimulus-QRS interval by 50% of the maximum response at the Adenosine A1 receptor in langendorff guinea pig heart preparation; format: functional

Row | EC50 (Adenosine receptor A1 [1]) | -Log EC50 (Adenosine A2 receptor [2]) | -Log EC50 (Adenosine A2 receptor [3]) | EC50 (Adenosine receptor A1 [4]) | Structure (SMILES)
1 | 12.6 µM | 7.74 | – | – | Nc1nc(Nc2ccccc2)nc2c1ncn2[C@@H]1O[C@H](CO)[C@@H](O)[C@H]1O
2 | 9.33 µM | 6.16 | – | – | COc1nc(N)c2ncn([C@H]3O[C@@H](CO)[C@H](O)[C@@H]3O)c2n1
3 | 0.191 µM | 7.6 | – | – | Nc1nc(Cl)nc2c1ncn2[C@@H]1O[C@H](CO)[C@@H](O)[C@H]1O
4 | – | – | 7.56 | 63.1 µM | CC#CCCOc1nc(N)c2ncn(C3O[C@@H](CO)[C@H](O)[C@@H]3O)c2n1 (stereo partly specified)
5 | – | – | 7.28 | 37.2 µM | CCCCOc1nc(N)c2ncn(C3O[C@@H](CO)[C@H](O)[C@@H]3O)c2n1 (stereo partly specified)
6 | – | – | 6.54 | 35.5 µM | CCC(CC)COc1nc(N)c2ncn(C3O[C@@H](CO)[C@H](O)[C@@H]3O)c2n1 (stereo partly specified)
7 | – | – | 8.45 | 22.9 µM | CC(C)CCCOc1nc(N)c2ncn(C3O[C@@H](CO)[C@H](O)[C@@H]3O)c2n1 (stereo partly specified)
8 | – | – | 7.8 | 15.8 µM | CCC(CC)CCOc1nc(N)c2ncn(C3O[C@@H](CO)[C@H](O)[C@@H]3O)c2n1 (stereo partly specified)
9 | – | – | 7.15 | 107 µM | CC(C)COc1nc(N)c2ncn(C3O[C@@H](CO)[C@H](O)[C@@H]3O)c2n1 (stereo partly specified)
10 | – | – | 6.44 | 79.4 µM | CCOc1nc(N)c2ncn(C3O[C@@H](CO)[C@H](O)[C@@H]3O)c2n1 (stereo partly specified)
11 | – | – | 7.94 | 45.7 µM | CCCCCOc1nc(N)c2ncn(C3O[C@@H](CO)[C@H](O)[C@@H]3O)c2n1 (stereo partly specified)
12 | – | – | 8.42 | 13.8 µM | CCCCCCOc1nc(N)c2ncn(C3O[C@@H](CO)[C@H](O)[C@@H]3O)c2n1 (stereo partly specified)
13 | – | – | 5.45 | 891 µM | CCC(C)Oc1nc(N)c2ncn(C3O[C@@H](CO)[C@H](O)[C@@H]3O)c2n1 (stereo partly specified)
14 | – | – | 7.18 | 2.19 µM | Nc1nc(OCCO)nc2c1ncn2C1O[C@@H](CO)[C@H](O)[C@@H]1O (stereo partly specified)
15 | – | – | 7.28 | 148 µM | CCCOc1nc(N)c2ncn(C3O[C@@H](CO)[C@H](O)[C@@H]3O)c2n1 (stereo partly specified)
16 | – | – | – | 24.5 µM | CCNC(=O)[C@H]1O[C@@H](n2cnc3c(N)nc(NCCc4ccc(CCC(=O)O)cc4)nc32)[C@H](O)[C@@H]1O [CGS-21680]

The next lines start with the molecule.

Row | Structure (SMILES) | EC50 (Adenosine receptor A1 [1]) | -Log EC50 (Adenosine A2 receptor [2]) | -Log EC50 (Adenosine A2 receptor [3]) | EC50 (Adenosine receptor A1 [4])
17 | COc1cc(OC)cc(C(CNc2ncnc3c2ncn3[C@@H]2O[C@H](CO)[C@@H](O)[C@H]2O)c2ccccc2C)c1 (stereo partly specified) | 5.62 µM | 9.35 | – | –
18 | O=C(Nc1ncnc2c1ncn2[C@@H]1O[C@H](CO)[C@@H](O)[C@H]1O)[C@H]1C[C@H]2CC[C@@H]1C2 | – | – | 7.08 | 0.00537 µM
19 | Nc1nc(OC2CCCC2)nc2c1ncn2[C@H]1O[C@@H](CO)[C@H](O)[C@@H]1O | – | – | 7.04 | 79.4 µM
20 | CC1(C)C2CCC(C(=O)CCOc3nc(N)c4ncn(C5O[C@@H](CO)[C@H](O)[C@@H]5O)c4n3)C1C2 (stereo partly specified) | – | – | 8.24 | 4.47 µM
21 | Nc1nc(OCCCCC2CCCCC2)nc2c1ncn2C1O[C@@H](CO)[C@H](O)[C@@H]1O (stereo partly specified) | – | – | 8.71 | 2.63 µM
22 | Nc1nc(OCCC2CCCC2)nc2c1ncn2C1O[C@@H](CO)[C@H](O)[C@@H]1O (stereo partly specified) | 14.1 µM | 8.41 | – | –
23 | CC(C)CCOc1nc(N)c2ncn(C3O[C@@H](CO)[C@H](O)[C@@H]3O)c2n1 (stereo partly specified) | – | – | 7.61 | 66.1 µM
24 | CC(C)Oc1nc(N)c2ncn(C3O[C@@H](CO)[C@H](O)[C@@H]3O)c2n1 (stereo partly specified) | – | – | 5.86 | 224 µM
25 | Nc1nc(OCCC(=O)[C@H]2CC3CCC2C3)nc2c1ncn2C1O[C@@H](CO)[C@H](O)[C@@H]1O (stereo partly specified) | 8.71 µM | 8.35 | – | –
26 | Nc1nc(OCCCC2CCCCC2)nc2c1ncn2C1O[C@@H](CO)[C@H](O)[C@@H]1O (stereo partly specified) | 3.72 µM | 8.67 | – | –
27 | CC(C)N(c1ccccc1)c1ncnc2c1ncn2C1O[C@H](CO)[C@@H](O)[C@H]1O (stereo partly specified) | – | – | 7.88 | 0.0339 µM
28 | Nc1nc(OC2CCCCC2)nc2c1ncn2C1O[C@@H](CO)[C@H](O)[C@@H]1O (stereo partly specified) | – | – | 6.18 | 100 µM
29 | Nc1nc(OCC2CCCCC2)nc2c1ncn2C1O[C@@H](CO)[C@H](O)[C@@H]1O (stereo partly specified) | 50.1 µM | 6.75 | – | –
30 | Nc1nc(OCCC2CCCCC2)nc2c1ncn2C1O[C@@H](CO)[C@H](O)[C@@H]1O (stereo partly specified) | 8.71 µM | 8.99 | – | –
31 | Nc1nc(=O)[nH]c2c1ncn2[C@@H]1O[C@H](CO)[C@@H](O)[C@H]1O [ISOGUANOSINE] | – | – | 7.1 | 1.15 µM
